From US20240101531A1, “PYRIDINAMINE DERIVATIVES AND THEIR USE AS POTASSIUM CHANNEL MODULATORS” (Xenon Pharmaceuticals Inc., priority 2022, published 2024)
pEC50: −log10 of the molar value. Where a name gives a salt, the structure may show the parent alone.

target: human KV7.2/KV7.3 (Homo sapiens (Human), UniProt O43525+O43526); experiment: Potassium flux assay (IPG-2 AM dye); assay type: cell-based; conditions: TREX HEK 293 or HEK 293 cells expressing human KV7.2/KV7.3; arithmetic mean values
In short: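 EC50 from 16 concentrations (2-fold dilutions, top 30 μM), scaled between DMSO baseline and a known KV7.x modulator maximum. Signal is IPG-2 AM fluorescence (ex 530/em 558 nm) after 10 mM KCl challenge buffer addition, following 20 min room-temperature compound exposure of HEK 293 or TREX HEK 293 cells stably expressing human KV7.2/KV7.3.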

| SMILES | pEC50 |
| --- | --- |
| Clc1ccc(Nc2nccc3cc(OCCCn4ccnc4)ccc23)cn1 [Example 185, 6-(3-(1H-imidazol-1-yl)propoxy)-N-(6-chloropyridin-3-yl)isoquinolin-1-amine] | 5.00 to 6.00 |
| COc1ncc(COc2ccc3c(Nc4ccc(Cl)nc4)nccc3c2)cn1 [Example 186, N-(6-chloropyridin-3-yl)-6-((2-methoxypyrimidin-5-yl)methoxy)isoquinolin-1-amine] | 5.00 to 6.00 |
| COc1cc(Nc2nccc3cc(OCC4(C)COC4)ccc23)cnc1C [Example 187, N-(5-methoxy-6-methylpyridin-3-yl)-6-((3-methyloxetan-3-yl)methoxy)isoquinolin-1-amine formate] | > 6.00 |
| CCn1ccc(COc2ccc3c(Nc4ccc(Cl)nc4)nccc3c2)n1 [Example 188, N-(6-chloropyridin-3-yl)-6-((1-ethyl-1H-pyrazol-3-yl)methoxy)isoquinolin-1-amine formate] | 5.00 to 6.00 |
| Cc1ncc(Nc2nccc3cc(OCC4(F)CC4)ccc23)cn1 [Example 189, 6-((1-fluorocyclopropyl)methoxy)-N-(2-methylpyrimidin-5-yl)isoquinolin-1-amine] | > 6.00 |
| Cc1ccc(Nc2nccc3cc(OCC4(F)CC4)ccc23)cn1 [Example 190, 6-((1-fluorocyclopropyl)methoxy)-N-(6-methylpyridin-3-yl)isoquinolin-1-amine] | 5.00 to 6.00 |
| CS(=O)(=O)CCCOc1ccc2c(Nc3ccc(Cl)nc3)nccc2c1 [Example 191, N-(6-chloropyridin-3-yl)-6-(3-(methylsulfonyl)propoxy)isoquinolin-1-amine] | 5.00 to 6.00 |
| Clc1ccc(Nc2nccc3cc(OCc4ccncc4)ccc23)cn1 [Example 192, N-(6-chloropyridin-3-yl)-6-(pyridin-4-ylmethoxy)isoquinolin-1-amine] | > 6.00 |
| Clc1ccc(Nc2nccc3cc(OCc4ncccn4)ccc23)cn1 [Example 193, N-(6-chloropyridin-3-yl)-6-(pyrimidin-2-ylmethoxy)isoquinolin-1-amine] | 5.00 to 6.00 |
| Cc1ccc(COc2ccc3c(Nc4ccc(Cl)nc4)nccc3c2)cn1 [Example 194, N-(6-chloropyridin-3-yl)-6-((6-methylpyridin-3-yl)methoxy)isoquinolin-1-amine] | > 6.00 |
| Clc1ccc(Nc2nccc3cc(OCc4cccnc4)ccc23)cn1 [Example 195, N-(6-chloropyridin-3-yl)-6-(pyridin-3-ylmethoxy)isoquinolin-1-amine] | > 6.00 |
| Cn1cc(COc2ccc3c(Nc4ccc(Cl)nc4)nccc3c2)cn1 [Example 196, N-(6-chloropyridin-3-yl)-6-((1-methyl-1H-pyrazol-4-yl)methoxy)isoquinolin-1-amine] | > 6.00 |
| Clc1ccc(Nc2nccc3cc(OC4CCOCC4)ccc23)cn1 [Example 197, N-(6-chloropyridin-3-yl)-6-((tetrahydro-2H-pyran-4-yl)oxy)isoquinolin-1-amine] | > 6.00 |
| Cn1ccnc1COc1ccc2c(Nc3ccc(Cl)nc3)nccc2c1 [Example 198, N-(6-chloropyridin-3-yl)-6-((1-methyl-1H-imidazol-2-yl)methoxy)isoquinolin-1-amine] | 5.00 to 6.00 |
| Cc1ncc(Nc2nccc3cc(OCc4ccncc4)ccc23)cn1 [Example 199, N-(2-methylpyrimidin-5-yl)-6-(pyridin-4-ylmethoxy)isoquinolin-1-amine] | 5.00 to 6.00 |
| Cc1ccc(Nc2nccc3cc(OCc4ccncc4)ccc23)cn1 [Example 200, N-(6-methylpyridin-3-yl)-6-(pyridin-4-ylmethoxy)isoquinolin-1-amine] | 5.00 to 6.00 |
| Clc1ccc(Nc2nccc3cc(OCCN4CCOCC4)ccc23)cn1 [Example 201, N-(6-chloropyridin-3-yl)-6-(2-morpholinoethoxy)isoquinolin-1-amine] | 5.00 to 6.00 |
| Clc1ncc(Nc2nccc3cc(OCc4ccncc4)ccc23)cn1 [Example 202, N-(2-chloropyrimidin-5-yl)-6-(pyridin-4-ylmethoxy)isoquinolin-1-amine] | > 6.00 |
| Cn1ccc(COc2ccc3c(Nc4cnc(Cl)nc4)nccc3c2)n1 [Example 203, N-(2-chloropyrimidin-5-yl)-6-((1-methyl-1H-pyrazol-3-yl)methoxy)isoquinolin-1-amine] | > 6.00 |
| Cc1cn(C)nc1COc1ccc2c(Nc3ccc(Cl)nc3)nccc2c1 [Example 204, N-(6-chloropyridin-3-yl)-6-((1,4-dimethyl-1H-pyrazol-3-yl)methoxy)isoquinolin-1-amine] | 5.00 to 6.00 |
| Cc1ncc(Nc2nccc3cc(OCc4cnn(C)c4)ccc23)cn1 [Example 205, 6-((1-methyl-1H-pyrazol-4-yl)methoxy)-N-(2-methylpyrimidin-5-yl)isoquinolin-1-amine] | > 6.00 |
| Cc1ncc(Nc2nccc3cc(OCc4ccn(C)n4)ccc23)cn1 [Example 206, 6-((1-methyl-1H-pyrazol-3-yl)methoxy)-N-(2-methylpyrimidin-5-yl)isoquinolin-1-amine] | 5.00 to 6.00 |

Continued, values first:

| pEC50 | SMILES |
| --- | --- |
| > 6.00 | N#CC1(COc2ccc3c(Nc4cnc(Cl)nc4)nccc3c2)CC1 [Example 207, 1-(((1-((2-chloropyrimidin-5-yl)amino)isoquinolin-6-yl)oxy)methyl)cyclopropane-1-carbonitrile] |
| > 6.00 | N#CC1(COc2ccc3c(Nc4cnc(Cl)nc4)nccc3c2)COC1 [Example 208, 3-(((1-((2-chloropyrimidin-5-yl)amino)isoquinolin-6-yl)oxy)methyl)oxetane-3-carbonitrile] |
| 5.00 to 6.00 | CC1(C)CC(COc2ccc3c(Nc4ccc(Cl)nc4)nccc3c2)O1 (stereo not shown) [Example 209, N-(6-chloropyridin-3-yl)-6-((4,4-dimethyloxetan-2-yl)methoxy)isoquinolin-1-amine] |
| > 6.00 | CC1(COc2ccc3c(Nc4ccc(Cl)nc4)nccc3c2)COC1 [Example 210, N-(6-chloropyridin-3-yl)-6-((3-methyloxetan-3-yl)methoxy)isoquinolin-1-amine] |
| 5.00 to 6.00 | Clc1ccc(Nc2nccc3cc(OCc4ncco4)ccc23)cn1 [Example 211, N-(6-chloropyridin-3-yl)-6-(oxazol-2-ylmethoxy)isoquinolin-1-amine] |
| 5.00 to 6.00 | Clc1ccc(Nc2nccc3cc(OCc4nccs4)ccc23)cn1 [Example 212, N-(6-chloropyridin-3-yl)-6-(thiazol-2-ylmethoxy)isoquinolin-1-amine] |
| > 6.00 | Clc1ncc(Nc2nccc3cc(OCC4COC4)ccc23)cn1 [Example 213, N-(2-chloropyrimidin-5-yl)-6-(oxetan-3-ylmethoxy)isoquinolin-1-amine] |
| 5.00 to 6.00 | Cc1ccc(Nc2nccc3cc(OCC4COC4)ccc23)cn1 [Example 214, N-(6-methylpyridin-3-yl)-6-(oxetan-3-ylmethoxy)isoquinolin-1-amine] |
| > 6.00 | Clc1ccc(Nc2nccc3cc(OCc4ccon4)ccc23)cn1 [Example 215, N-(6-chloropyridin-3-yl)-6-(isoxazol-3-ylmethoxy)isoquinolin-1-amine] |
| > 6.00 | Clc1ccc(Nc2nccc3cc(OC4CCCOC4)ccc23)cn1 (stereo not shown) [Example 216, N-(6-chloropyridin-3-yl)-6-((tetrahydro-2H-pyran-3-yl)oxy)isoquinolin-1-amine] |
| 5.00 to 6.00 | Clc1ccc(Nc2nccc3cc(OCC4CCCO4)ccc23)cn1 (stereo not shown) [Example 217, N-(6-chloropyridin-3-yl)-6-((tetrahydrofuran-2-yl)methoxy)isoquinolin-1-amine] |
| > 6.00 | Cc1ncc(Nc2nccc3cc(OCC4(C)COC4)ccc23)cn1 [Example 218, 6-((3-methyloxetan-3-yl)methoxy)-N-(2-methylpyrimidin-5-yl)isoquinolin-1-amine] |
| 5.00 to 6.00 | COC1(COc2ccc3c(Nc4cnc(C)nc4)nccc3c2)COC1 [Example 219, 6-((3-methoxyoxetan-3-yl)methoxy)-N-(2-methylpyrimidin-5-yl)isoquinolin-1-amine formate] |
| > 6.00 | COC1(COc2ccc3c(Nc4ccc(Cl)nc4)nccc3c2)COC1 [Example 220, N-(6-chloropyridin-3-yl)-6-((3-methoxyoxetan-3-yl)methoxy)isoquinolin-1-amine] |
| 5.00 to 6.00 | Cc1ncc(Nc2nccc3cc(OCC4COC4)ccc23)cn1 [Example 221, N-(2-methylpyrimidin-5-yl)-6-(oxetan-3-ylmethoxy)isoquinolin-1-amine] |
| 5.00 to 6.00 | Cc1ncc(Nc2nccc3cc(OCc4ccon4)ccc23)cn1 [Example 222, 6-(isoxazol-3-ylmethoxy)-N-(2-methylpyrimidin-5-yl)isoquinolin-1-amine] |
| > 6.00 | Clc1ccc(Nc2nccc3cc(OCC4COC4)ccc23)cn1 [Example 223, N-(6-chloropyridin-3-yl)-6-(oxetan-3-ylmethoxy)isoquinolin-1-amine] |
| > 6.00 | C[C@@](O)(COc1ccc2c(Nc3ccc(Cl)nc3)nccc2c1)C(F)(F)F [Example 224, (R)-3-((1-((6-chloropyridin-3-yl)amino)isoquinolin-6-yl)oxy)-1,1,1-trifluoro-2-methylpropan-2-ol] |
| 5.00 to 6.00 | C[C@](O)(COc1ccc2c(Nc3ccc(Cl)nc3)nccc2c1)C(F)(F)F [Example 225, (S)-3-((1-((6-chloropyridin-3-yl)amino)isoquinolin-6-yl)oxy)-1,1,1-trifluoro-2-methylpropan-2-ol] |
| 5.00 to 6.00 | NC(COc1ccc2c(Nc3ccc(Cl)nc3)nccc2c1)C(F)(F)F (stereo not shown) [Example 226, 6-(2-amino-3,3,3-trifluoropropoxy)-N-(6-chloropyridin-3-yl)isoquinolin-1-amine] |
| 5.00 to 6.00 | FC1(F)CN[C@@H](COc2ccc3c(Nc4ccc(Cl)nc4)nccc3c2)C1 [Example 227, (R)—N-(6-chloropyridin-3-yl)-6-((4,4-difluoropyrrolidin-2-yl)methoxy)isoquinolin-1-amine trifluoroacetate] |
